Measurements as given in paper PMC12360161, “Identifying 14-3-3 interactome binding sites with deep learning” (Digital Discovery, 2025).
Read-outs that look alike come from different tables or passages of the source. Where a SMILES comes first, the peptide text is derived from it. Where no end group is shown, it is not given here. [ ]: non-standard residue; d: D form. The star is where a group is joined. 5FAM = O=C1OC2(c3ccc(O)cc3Oc3cc(O)ccc32)c2ccc(C(=O)*)cc21; pT = C[C@@H](OP(=O)(O)O)[C@H](N)C(=O)O; pS = N[C@@H](COP(=O)(O)O)C(=O)O; Ahx = NCCCCCC(=O)O

Key:
[1] = target: T1, full-length (FL) human 14-3-3γ protein (Homo sapiens, UniProt P61981); assay: Fluorescence anisotropy (FA) assay of FAM-labeled peptides binding to 14-3-3γ; settings: for Kd: 14-3-3γ FL dilution series (starting at 500 μM) to 10 nM FAM-labeled peptide, 10 mM HEPES pH 7.4, 150 mM NaCl, 0.1% Tween20, 1 mg/mL BSA, room temperature, Hill fit, mean ± SD; for Binding in the FA assay (in words): 14-3-3γ, 10 nM FAM-labeled peptide
T1 construct: The full-length (FL) human 14-3-3γ protein was expressed from a pPROEX plasmid; His6; made in house; host or cells: E. coli BL21(DE3)
T1 sequence (P61981 1-247): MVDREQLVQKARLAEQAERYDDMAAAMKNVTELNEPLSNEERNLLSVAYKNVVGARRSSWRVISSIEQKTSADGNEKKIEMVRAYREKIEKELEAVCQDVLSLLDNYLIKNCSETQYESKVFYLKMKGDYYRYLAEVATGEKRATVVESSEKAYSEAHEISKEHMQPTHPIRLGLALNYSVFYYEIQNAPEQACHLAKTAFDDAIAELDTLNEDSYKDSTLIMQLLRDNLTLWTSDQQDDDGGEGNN
Method: To study the binding of the fluorescently labelled peptides to 14-3-3, Fluorescence Anisotropy (FA) assays were carried out.[23] In the case of binding, tumbling of the peptide with the attached fluorophore will slow down and the emitted light will be polarized. This will lead to a higher anisotropy.[79] For all experiments, 14-3-3γ was used as it was shown in multiple experiments to be the strongest binding variant suitable for experimental screening.[80] The FAM-labeled peptides and the 14-3-3γ FL protein were diluted in buffer (10 mM HEPES pH 7.4, 150 mM NaCl, 0.1% Tween20, 1 mg mL^−1 BSA).
Dilution series of 14-3-3γ proteins (starting at 500 μM) were made to 10 nM of the FAM-labeled peptides in black, round-bottom 384-microwell (Corning) in a final sample volume of 10 μL. Fluorescence anisotropy values were measured using a Tecan Spark Control at room temperature filter set lex: 485 ± 20 nm, lem: 535 ± 25 nm, mirror: Dichroic 510, flashes: 30, integration time: 40 μs, settle time: 1 μs; gain: optimized per peptide, and Z-position: calculated from well. Wells containing only FAM-peptide were used to set as G-factor. The KD values were obtained from fitting the data using Origin 2020 with a Sigmoid Hill1 function (using the Hill equation). Data shown is the average and standard deviation of triplicates. For dose–response curves on a linear scale seep SI Fig. S2.

[2] = target: T2, full-length (FL) human 14-3-3γ protein (human, UniProt P61981 1-247); assay: fluorescence polarisation; fluorescence anisotropy; dilution series of 14-3-3γ (starting at 500 μM) to 10 nM FAM-labeled peptide; 10 mM HEPES pH 7.4, 150 mM NaCl, 0.1% Tween20, 1 mg/mL BSA; room temperature; Hill fit; triplicates; settings: both partners purified
T2 construct: 14-3-3 gamma, human, full length; also called 14-3-3γ FL
T2 sequence (looked up): T1 sequence (P61981 1-247)

[3] = target: T2, full-length (FL) human 14-3-3γ protein; assay: as above; settings: both partners purified; remark: listed apart in the source

For `C[C@H](NC(=O)[C@H](CO)NC(=O)[C@@H]1CCCN1C(=O)[C@H](CO)NC(=O)CNC(=O)[C@H](COP(=O)(O)O)NC(=O)[C@H](CCC(=O)O)NC(=O)[C@H](CO)NC(=O)[C@H](CCCNC(=N)N)NC(=O)[C@H](CCCCN)NC(=O)CNC(=O)[C@@H]1CCCN1C(=O)[C@H](C)NC(=O)CCCCCNC(=O)c1ccc2c(c1)C(=O)OC21c2ccc(O)cc2Oc2cc(O)ccc21)C(=O)NCC(=O)NCC(N)=O` [Peptide 8] ({5FAM-Ahx}-APGKRSE[pS]GSPSAGG-NH2), the Kd ([1]; n = 3, read-out: Kd) was > 100 µM.

`CC(C)C[C@H](NC(=O)[C@H](CO)NC(=O)[C@H](CC(=O)O)NC(=O)[C@H](CC(=O)O)NC(=O)CNC(=O)[C@H](CC(N)=O)NC(=O)[C@H](COP(=O)(O)O)NC(=O)[C@@H](NC(=O)[C@H](CCCCN)NC(=O)[C@H](CCCNC(=N)N)NC(=O)[C@H](CC(N)=O)NC(=O)[C@H](CC(N)=O)NC(=O)[C@H](CC(N)=O)NC(=O)[C@H](CC(N)=O)NC(=O)CCCCCNC(=O)c1ccc2c(c1)C(=O)OC21c2ccc(O)cc2Oc2cc(O)ccc21)[C@@H](C)O)C(=O)N[C@@H](Cc1ccccc1)C(N)=O` [Peptide 5] ({5FAM-Ahx}-NNNNRKT[pS]NGDDSLF-NH2) was tested, and the Kd ([1]; n = 3, read-out: Kd) was > 500 µM and the “Binding in the FA assay (in words)” value [1] was “no binding”.

In the case of `CSCC[C@H](NC(=O)[C@H](CCCNC(=N)N)NC(=O)[C@H](CCCNC(=N)N)NC(=O)[C@H](CC(C)C)NC(=O)[C@H](CCC(=O)O)NC(=O)[C@H](CCCNC(=N)N)NC(=O)CNC(=O)CCCCCNC(=O)c1ccc2c(c1)C(=O)OC21c2ccc(O)cc2Oc2cc(O)ccc21)C(=O)N[C@@H](COP(=O)(O)O)C(=O)N[C@@H](CC(=O)O)C(=O)N[C@@H](CCC(=O)O)C(=O)N[C@@H](Cc1ccccc1)C(=O)N[C@H](C(=O)N[C@@H](CC(=O)O)C(=O)N[C@@H](CO)C(=O)N[C@@H](Cc1ccccc1)C(N)=O)C(C)C` [Peptide 7] ({5FAM-Ahx}-GRELRRM[pS]DEFVDSF-NH2), the Kd ([1]; n = 3, read-out: Kd) is reported as > 100 µM.

With `CC(C)C[C@H](NC(=O)CCCCCNC(=O)c1ccc2c(c1)C(=O)OC21c2ccc(O)cc2Oc2cc(O)ccc21)C(=O)N[C@@H](Cc1c[nH]cn1)C(=O)N[C@@H](CCC(=O)O)C(=O)N[C@@H](CCC(=O)O)C(=O)N[C@H](C(=O)N1CCC[C@H]1C(=O)N1CCC[C@H]1C(=O)N[C@H](C(=O)N[C@H](C(=O)N[C@@H](CO)C(=O)N[C@@H](CO)C(=O)N[C@@H](CC(=O)O)C(=O)N[C@@H](CO)C(=O)N[C@@H](CCC(=O)O)C(=O)N[C@@H](CCC(=O)O)C(N)=O)[C@@H](C)O)[C@@H](C)OP(=O)(O)O)[C@@H](C)O` [Peptide 10] ({5FAM-Ahx}-LHEETPP[pT]TSSDSEE-NH2) the Kd ([1]; n = 3) was > 500 µM and the “Binding in the FA assay (in words)” value [1] was “did not bind”.

For `CC[C@H](C)[C@H](NC(=O)CNC(=O)[C@H](C)NC(=O)[C@H](CCC(=O)O)NC(=O)[C@H](CCC(=O)O)NC(=O)CCCCCNC(=O)c1ccc2c(c1)C(=O)OC21c2ccc(O)cc2Oc2cc(O)ccc21)C(=O)NCC(=O)N[C@@H](CC(=O)O)C(=O)N[C@H](C(=O)N1CCC[C@H]1C(=O)N[C@@H](CO)C(=O)N[C@@H](CC(C)C)C(=O)N[C@@H](CCC(=O)O)C(=O)N[C@@H](CC(=O)O)C(=O)N[C@@H](CCC(=O)O)C(=O)N[C@@H](C)C(N)=O)[C@@H](C)OP(=O)(O)O` [Peptide 9] ({5FAM-Ahx}-EEAGIGD[pT]PSLEDEA-NH2), the Kd ([1]; n = 3) was > 500 µM and the “Binding in the FA assay (in words)” value [1] was “did not bind”.

B1: FOXO3 pS413 peptide (peptide 1), FAM-labelled (peptide)
peptide: {5FAM-Ahx}-GLMQRSS[pS]FPYTTKG-NH2
SMILES: CSCC[C@H](NC(=O)[C@H](CC(C)C)NC(=O)CNC(=O)CCCCCNC(=O)c1ccc2c(c1)C(=O)OC21c2ccc(O)cc2Oc2cc(O)ccc21)C(=O)N[C@@H](CCC(N)=O)C(=O)N[C@@H](CCCNC(=N)N)C(=O)N[C@@H](CO)C(=O)N[C@@H](CO)C(=O)N[C@@H](COP(=O)(O)O)C(=O)N[C@@H](Cc1ccccc1)C(=O)N1CCC[C@H]1C(=O)N[C@@H](Cc1ccc(O)cc1)C(=O)N[C@H](C(=O)N[C@H](C(=O)N[C@@H](CCCCN)C(=O)NCC(N)=O)[C@@H](C)O)[C@@H](C)O
notes: forkhead box O3 (FOXO3), seven residues before and after phosphosite 413; also called FOXO pS413; source: synthetic peptide, bought: GenScript
In the case of B1, the Kd [2] is reported as 1.6 µM.

B2: Tau pT245 peptide (peptide 2), FAM-labelled (peptide)
peptide: SAKSRLQ[pT]APVPMPD-NH2
modifications: not fully specified (N-terminus)
notes: Tau, seven residues before and after phosphosite 245; numbers count on: P10636-8; source: synthetic peptide, bought: GenScript
B2 gave a Kd [2] of 8.6 µM and a Kd [3] of 8.5 ± 0.2 µM.

B3: BAD pS134 peptide (peptide 6), FAM-labelled (peptide)
peptide: {5FAM-Ahx}-KGLPRPK[pS]AGTATQM-NH2
SMILES: CSCC[C@H](NC(=O)[C@H](CCC(N)=O)NC(=O)[C@@H](NC(=O)[C@H](C)NC(=O)[C@@H](NC(=O)CNC(=O)[C@H](C)NC(=O)[C@H](COP(=O)(O)O)NC(=O)[C@H](CCCCN)NC(=O)[C@@H]1CCCN1C(=O)[C@H](CCCNC(=N)N)NC(=O)[C@@H]1CCCN1C(=O)[C@H](CC(C)C)NC(=O)CNC(=O)[C@H](CCCCN)NC(=O)CCCCCNC(=O)c1ccc2c(c1)C(=O)OC21c2ccc(O)cc2Oc2cc(O)ccc21)[C@@H](C)O)[C@@H](C)O)C(N)=O
notes: Bcl-2-associated agonist of cell death (BAD), seven residues before and after phosphosite 134; source: synthetic peptide, bought: GenScript
For B3, the Kd [2] was 15.9 µM.

B4: Tau pS198 peptide (peptide 4), FAM-labelled (peptide)
peptide: {5FAM-Ahx}-SGDRSGY[pS]SPGSPGT-NH2
SMILES: C[C@@H](O)[C@H](NC(=O)CNC(=O)[C@@H]1CCCN1C(=O)[C@H](CO)NC(=O)CNC(=O)[C@@H]1CCCN1C(=O)[C@H](CO)NC(=O)[C@H](COP(=O)(O)O)NC(=O)[C@H](Cc1ccc(O)cc1)NC(=O)CNC(=O)[C@H](CO)NC(=O)[C@H](CCCNC(=N)N)NC(=O)[C@H](CC(=O)O)NC(=O)CNC(=O)[C@H](CO)NC(=O)CCCCCNC(=O)c1ccc2c(c1)C(=O)OC21c2ccc(O)cc2Oc2cc(O)ccc21)C(N)=O
notes: Tau, seven residues before and after phosphosite 198; numbers count on: P10636-8; source: synthetic peptide, bought: GenScript
Molecule B4 has a Kd [2] of 71 µM.

B5: Tau-pS324 peptide (peptide)
chain: KVTSKCG[pS]LGNIHHK
In the case of B5, the Kd [3] is reported as > 100 µM.

B6: Tau-pS214 peptide (peptide)
chain: GSRSRTP[pS]LPTPPTR
Work on B6 yielded a Kd [3] of 16.4 ± 0.9 µM.

B7: Notch 4 pS1847 peptide (peptide 3), FAM-labelled (peptide)
peptide: {5FAM-Ahx}-FPRARTV[pS]VSVPPHG-NH2
SMILES: CC(C)[C@H](NC(=O)[C@H](COP(=O)(O)O)NC(=O)[C@@H](NC(=O)[C@@H](NC(=O)[C@H](CCCNC(=N)N)NC(=O)[C@H](C)NC(=O)[C@H](CCCNC(=N)N)NC(=O)[C@@H]1CCCN1C(=O)[C@H](Cc1ccccc1)NC(=O)CCCCCNC(=O)c1ccc2c(c1)C(=O)OC21c2ccc(O)cc2Oc2cc(O)ccc21)[C@@H](C)O)C(C)C)C(=O)N[C@@H](CO)C(=O)N[C@H](C(=O)N1CCC[C@H]1C(=O)N1CCC[C@H]1C(=O)N[C@@H](Cc1c[nH]cn1)C(=O)NCC(N)=O)C(C)C
notes: Notch-4, seven residues before and after phosphosite 1847; also called NOTCH pS1847; source: synthetic peptide, bought: GenScript
Work on B7 yielded a Kd [2] of 70 µM.
